From ChEMBL document CHEMBL3421583, “Withanolides with antibacterial activity from Nicandra john-tyleriana” (J Nat Prod, 2015)
Calls of active or inactive are those of the source.

What was measured:
Type in all cases: functional, organism-based
Bacillus cereus [1] = assay: Antibacterial activity against Bacillus cereus at 2000 ppm after 24 to 48 hrs by disk diffusion method
Bacillus cereus [2] = assay: Antibacterial activity against Bacillus cereus at 2000 ppm after 24 hrs by bioautographic TLC assay
Bacillus cereus [3] = assay: Bactericidal activity against Bacillus cereus BAC1 at 1000 ppm after 24 hrs
Bacillus cereus [4] = assay: Bacteriostatic activity against Bacillus cereus BAC1 at 750 ppm after 24 hrs

Measured: Activity

C[C@]12CC[C@H]3[C@@H](C[C@H]4O[C@]45CC=CC(=O)[C@]35C)[C@@H]1C[C@@H](O)[C@@H]2[C@@H]1C[C@]2(C)C[C@H]1OC(=O)[C@]2(C)O
active: Bacillus cereus [1] | Bacillus cereus [2]

CC1=C(CO)C(=O)O[C@@H]([C@@H](C)[C@H]2C(=O)C[C@H]3[C@@H]4C[C@H]5O[C@]56CC=CC(=O)[C@]6(C)[C@H]4CC[C@]23C)C1
active: all assays above
